The target of one data set is T1, HBV RNaseH (Hepatitis B virus genotype A2 subtype adw2, UniProt P03159).
T1 construct: One of the inventors recently produced active recombinant HBV RNase H; hexahistidine; made in house; host or cells: E. coli
Put plainly: Biochemical inhibition of HBV RNaseH (oligonucleotide-directed RNA cleavage assay). To be noted: compounds at 60, 20 or 10 μM. The gist of the method: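 A DNA oligonucleotide was annealed to internally ^32P-labeled RNA, and the heteroduplex was incubated with enzyme alongside compounds at 60, 20 or 10 μM. Cleavage products were resolved by electrophoresis and detected by autoradiography, then quantified against DMSO vehicle reactions.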

In data set [1] the test system is Vero cells. The data set is described as follows: MTT mitochondrial toxicity assay in Vero cells. To be noted: 24 h; read-out: Vero cell toxicity MTT CC50. It is filed as cell-based.
The test system of a further data set is HSV-1. Put plainly: Anti-HSV-1 replication assay in Vero cells, titer by plaque assay. It is filed as cell-based, herpes simplex virus 1. To be noted: moi 0.1, 24 h, relative to DMSO. The gist of the method:
(§1)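 Well lysates titered by plaque assay on Vero cells versus DMSO controls; EC50 by non-linear fit from serial dilutions starting at 50 μM.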

For data set [2], the system named is Vero cells. Put plainly: Qualitative (visual) cytotoxicity assessment in primary screening. The data set is classed as cell-based. To be noted: visual, 50 μM. As to the method:
Compound Cytotoxicity. Compound cytotoxicity was measured both subjectively and quantitatively. Subjective assessments were done by visually inspecting the infected cells at the end of the 24 hours infection window through a phase-contrast microscope.

The next data set deals with HSV-2. Put plainly: Anti-HSV-2 replication assay in Vero cells, titer by plaque assay. The data set is classed as cell-based, herpes simplex virus 2. To be noted: moi 0.1, 24 h, relative to DMSO. Put shortly: as §1
Data set [3] concerns Vero cells. The data set is described as follows: CytoTox-Glo cellular lysis assay in Vero cells. It is filed as cell-based. To be noted: 24 h; read-out: Vero cell toxicity CTG CC50. On the procedure:
Quantitative toxicity measurements were conducted for all compounds that suppressed HSV replication by approximately 2 login or more at 5 μM plus a number of compounds with lesser inhibitory activity for comparison. Toxicity was assessed by measuring release of intracellular proteases into the culture medium due to cellular lysis. […] Consistent with the subjective assessments of toxicity, all compounds selected for quantitative toxicity assessment had CC50 values ≥50 μM by both the MTT and cellular lysis assays (Table 1).

A further data set deals with T2, human RNaseH1 (Homo sapiens, UniProt O60930).
T2 construct: hexahistidine; made in house; host or cells: E. coli
T2 sequence (O60930 1-286): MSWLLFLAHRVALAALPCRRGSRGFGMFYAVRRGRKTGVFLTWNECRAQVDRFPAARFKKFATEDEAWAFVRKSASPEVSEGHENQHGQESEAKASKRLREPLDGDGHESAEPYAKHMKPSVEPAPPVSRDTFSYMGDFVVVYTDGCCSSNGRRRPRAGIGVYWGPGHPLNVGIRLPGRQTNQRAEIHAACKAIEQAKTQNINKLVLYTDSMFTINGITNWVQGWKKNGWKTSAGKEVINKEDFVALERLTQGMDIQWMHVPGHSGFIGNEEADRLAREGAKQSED
Put plainly: Biochemical inhibition of human RNaseH1 (oligonucleotide-directed RNA cleavage assay). To be noted: compounds at 60, 20 or 10 μM. As to the method:
Biochemical inhibition of HBV RNaseH and human RNaseH1 activity. […] RNaseH activity was measured using an oligonucleotide-directed RNA cleavage assay in which a DNA oligonucleotide is annealed to an internally ^32P-labeled RNA, the RNA:DNA heteroduplex is incubated with the enzyme to permit cleavage, and then the RNA cleavage products are resolved by electrophoresis and detected by autoradiography. The compounds were included in the reaction mixes at 60, 20, or 10 μM and the amount of the RNA cleavage products in the compound-containing reactions was compared to reactions in which an equivalent concentration of DMSO was added as a vehicle control. The data were quantified using ImageJ.

From patent US10463664B2, “Inhibitors of HSV nucleotidyl transferases and uses therefor” (Saint Louis University, priority 2013, dated 2019) come the findings set out here.

T1 sequence (P03159 693-845): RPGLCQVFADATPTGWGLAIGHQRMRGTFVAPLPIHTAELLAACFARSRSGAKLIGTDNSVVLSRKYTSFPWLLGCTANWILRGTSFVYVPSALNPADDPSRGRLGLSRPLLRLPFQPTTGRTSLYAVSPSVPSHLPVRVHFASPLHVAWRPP

Take `O=C1Cc2ccccc2C(=O)N1O` [Compound 1]: the “Anti-HBV RNaseH” value at HBV RNaseH was “+++ (inhibition at 10 μM)”. Also, in the data set on Vero cells [1], the cytotoxic concentration (CC50) was greater than 100 µM. Also, in the data set with HSV-1, the “Anti-HSV-1 Log10 suppression 5 μM” value is reported as 0.28 log10 and the “Anti-HSV-1 Log10 suppression 50 μM” value is recorded as 2.66 log10. The “Vero cell toxicity Qualitative” value in the data set on Vero cells [2] is recorded as “T?”. Moreover, in the data set on HSV-2, the “Anti-HSV-2 Log10 suppression 5 μM” value is recorded as −0.11 log10 and the “Anti-HSV-2 Log10 suppression 50 μM” value worked out at 3.12 log10. The half-maximal cytotoxic concentration (CC50) with Vero cells [3] was greater than 100 µM.
In the case of `C[C@H](Cc1ccc(O)c(O)c1)[C@@H](C)Cc1ccc(O)c(O)c1` [Compound 2], the “Anti-HBV RNaseH” value on HBV RNaseH was “− (no inhibition at 60 μM)”. In addition, the half-maximal cytotoxic concentration (CC50) with Vero cells [1] is greater than 100 µM. For the same compound, in the data set with HSV-1, the “Anti-HSV-1 Log10 suppression 5 μM” value is −0.19 log10 and the “Anti-HSV-1 Log10 suppression 50 μM” value stood at 3.21 log10. At human RNaseH1, the “Anti-Human RNaseH1” value is “− (no inhibition at 60 μM)”. Besides, in the data set on HSV-2, the “Anti-HSV-2 Log10 suppression 5 μM” value is given as −0.15 log10 and the “Anti-HSV-2 Log10 suppression 50 μM” value was found to be 4.38 log10. Besides, the CC50 in the data set on Vero cells [3] was greater than 100 µM.
For the compound `O=c1cc2oc3cc(O)c(O)cc3c(-c3ccccc3)c-2cc1O` [Compound 31], at HBV RNaseH, the “Anti-HBV RNaseH” value was “+++ (inhibition at 10 μM)”. Besides, the half-maximal cytotoxic concentration (CC50) with Vero cells [1] was greater than 100 µM. Also, in the data set on HSV-1, the “Anti-HSV-1 Log10 suppression 5 μM” value is recorded as 0.21 log10 and the “Anti-HSV-1 Log10 suppression 50 μM” value is 3.01 log10. For the same compound, the “Anti-Human RNaseH1” value at human RNaseH1 is “+++ (inhibition at 10 μM)”. In the data set with HSV-2, the “Anti-HSV-2 Log10 suppression 5 μM” value was determined as 0.22 log10 and the “Anti-HSV-2 Log10 suppression 50 μM” value stood at 3.56 log10. In addition, the CC50 in the data set on Vero cells [3] was greater than 100 µM.
